Measured values reported in patent publication US4526989A, “1,4-Bis (substituted-amino)-5,8-dihydroxy-anthraquinones and leuco bases thereof” (priority 1979, dated 1985).
Where a name gives a salt, the structure may show the parent alone. Read-outs that look alike come from different tables or passages of the source.

Tested on: lymphocytic leukemia P388
Assay: Lymphocytic leukemia P388 test (intraperitoneal administration)
Format: in vivo, DBA/2 mice
Description: The animals used are DBA/2 mice all of one sex, weighing a minimum of 17 g. and all within a 3 gram weight range. There are 5 or 6 animals per test group. The tumor transplant is by intraperitoneal injection of 0.1 ml. of dilute ascitic fluid containing 10^6 cells of lymphocytic leukemia P388. The test compounds are administered intraperitoneally on days one, 5 and 9 (relative to tumor inoculation) at various doses. The animals are weighed and survivors are recorded on a regular basis for 30 days. The median survival time and the ratio of survival time for treated (T)/control (C) animals are calculated.

[1] = 0.39 mg./kg. i.p., days 1, 5 and 9
[2] = 0.78 mg./kg. i.p., days 1, 5 and 9
[3] = 1.56 mg./kg. i.p., days 1, 5 and 9
[4] = 3.1 mg./kg. i.p., days 1, 5 and 9
[5] = 6.2 mg./kg. i.p., days 1, 5 and 9
[6] = 12.5 mg./kg. i.p., days 1, 5 and 9
[7] = Mus musculus, P388, ip; 0.39 mg./kg. i.p., days 1, 5 and 9; efficacy ≥125%; read-out: T/C × 100
[8] = Mus musculus, P388, ip; 0.78 mg./kg. i.p., days 1, 5 and 9; efficacy ≥125%; read-out: T/C × 100
[9] = Mus musculus, P388, ip; 1.56 mg./kg. i.p., days 1, 5 and 9; efficacy ≥125%; read-out: T/C × 100
[10] = Mus musculus, P388, ip; 3.1 mg./kg. i.p., days 1, 5 and 9; efficacy ≥125%; read-out: T/C × 100
[11] = Mus musculus, P388, ip; 6.2 mg./kg. i.p., days 1, 5 and 9; efficacy ≥125%; read-out: T/C × 100
[12] = Mus musculus, P388, ip; 12.5 mg./kg. i.p., days 1, 5 and 9; efficacy ≥125%; read-out: T/C × 100
[13] = 3.12 mg./kg. i.p., days 1, 5 and 9
[14] = 6.25 mg./kg. i.p., days 1, 5 and 9
[15] = 25 mg./kg. i.p., days 1, 5 and 9
[16] = 50 mg./kg. i.p., days 1, 5 and 9
[17] = 100 mg./kg. i.p., days 1, 5 and 9
[18] = Mus musculus, P388, ip; 3.12 mg./kg. i.p., days 1, 5 and 9; efficacy ≥125%; read-out: T/C × 100
[19] = Mus musculus, P388, ip; 6.25 mg./kg. i.p., days 1, 5 and 9; efficacy ≥125%; read-out: T/C × 100
[20] = Mus musculus, P388, ip; 25 mg./kg. i.p., days 1, 5 and 9; efficacy ≥125%; read-out: T/C × 100
[21] = Mus musculus, P388, ip; 50 mg./kg. i.p., days 1, 5 and 9; efficacy ≥125%; read-out: T/C × 100
[22] = Mus musculus, P388, ip; 100 mg./kg. i.p., days 1, 5 and 9; efficacy ≥125%; read-out: T/C × 100
[23] = 200 mg./kg. i.p., days 1, 5 and 9
[24] = Mus musculus, P388, ip, read-out: T/C × 100
[25] = Mus musculus, P388, ip; 200 mg./kg. i.p., days 1, 5 and 9; efficacy ≥125%; read-out: T/C × 100

Compound	Median Survival Time [2]	Median Survival Time [3]	Median Survival Time [4]	Median Survival Time [5]	Median Survival Time [6]	response vs control in vivo at 0.78 mg/kg [8]	response vs control in vivo at 1.56 mg/kg [9]	response vs control in vivo at 3.1 mg/kg [10]	response vs control in vivo at 6.2 mg/kg [11]	response vs control in vivo at 12.5 mg/kg [12]	Median Survival Time [14]	Median Survival Time [15]	Median Survival Time [16]	Median Survival Time [17]	response vs control in vivo at 6.25 mg/kg [19]	response vs control in vivo at 25 mg/kg [20]	response vs control in vivo at 50 mg/kg [21]	response vs control in vivo at 100 mg/kg [22]	Median Survival Time [23]	response vs control in vivo at 200 mg/kg [25]	other results
Cl.Cl.NCCNc1ccc(NCCN)c2c1C(=O)c1c(O)ccc(O)c1C2=O [1,4-Bis(2-aminoethylamino)-5,8-dihydroxyanthraquinone dihydrochloride]	24.5 days	20.0 days	30.0 days	15.5 days	8.0 days	223%	182%	273%	141%	73%	–	–	–	–	–	–	–	–	–	–	Median Survival Time (0.19 mg./kg. i.p., days 1, 5 and 9): 23.0 days; Median Survival Time [1]: 25.5 days; response vs control in vivo at 0.19 mg/kg (Mus musculus, P388, ip, 0.19 mg./kg. i.p., days 1, 5 and 9; efficacy ≥125%; read-out: T/C × 100): 209%; response vs control in vivo at 0.39 mg/kg [7]: 232%
Cl.Cl.O=C1c2c(O)ccc(O)c2C(=O)c2c(NCCCNCCO)ccc(NCCCNCCO)c21 [1,4-Bis[3-(2-hydroxyethylamino)-1-propylamino]-5,8-dihydroxyanthraquinone dihydrochloride]	15.0 days	16.0 days	–	–	22.5 days	136%	145%	–	–	205%	19.0 days	26.5 days	32.0 days	12.5 days	173%	241%	291%	114%	–	–	Median Survival Time [13]: 19.0 days; response vs control in vivo at 3.12 mg/kg [18]: 173%
CC(O)CNCCNc1ccc(NCCNCC(C)O)c2c1C(=O)c1c(O)ccc(O)c1C2=O.Cl.Cl (stereo not drawn) [1,4-Bis[2-(2-hydroxy-1-propylamino)ethylamino]-5,8-dihydroxyanthraquinone dihydrochloride]	19.0 days	19.0 days	22.0 days	23.0 days	24.0 days	190%	190%	220%	230%	240%	–	12.0 days	–	–	–	120%	–	–	–	–	Median Survival Time [1]: 17.5 days; response vs control in vivo at 0.39 mg/kg [7]: 175%
O=C1C2=C(NCCNCCCO)CCC(NCCNCCCO)=C2C(=O)c2c(O)ccc(O)c21 [Leuco-1,4-bis[2-(3-hydroxy-1-propylamino)ethylamino]-5,8-dihydroxyanthraquinone]	18.0 days	19.5 days	18.5 days	–	19.5 days	164%	177%	168%	–	177%	16.5 days	22.0 days	34.0 days	38.0 days	150%	–	309%	345%	14.0 days	127%	response vs control in vivo at 25 mg/kg [24]: 200%
O=C1c2c(O)ccc(O)c2C(=O)c2c(NCCNCCN3CCOCC3)ccc(NCCNCCN3CCOCC3)c21 [1,4-Bis[2-[2-(1-morpholino)ethylamino]ethylamino]-5,8-dihydroxyanthraquinone tetrahydrochloride]	–	–	13.0 days	14.0 days	15.0 days	–	–	130%	140%	150%	–	19.5 days	18.5 days	20.0 days	–	195%	185%	–	9.5 days	95%	response vs control in vivo at 100 mg/kg [24]: 200%
O=C1C2=C(NCCN(CCO)CCO)CCC(NCCN(CCO)CCO)=C2C(=O)c2c(O)ccc(O)c21 [Leuco-1,4-bis[2-[di(β-hydroxyethyl)amino]ethylamino]-5,8-dihydroxyanthraquinone]	–	–	–	12.0 days	13.5 days	–	–	–	120%	135%	–	15.0 days	16.0 days	17.0 days	–	150%	160%	170%	19.0 days	190%	–
CC(O)CNCCNC1=C2C(=O)c3c(O)ccc(O)c3C(=O)C2=C(NCCNCC(C)O)CC1 (stereo not drawn) [Leuco-1,4-bis[2-(2-hydroxy-1-propylamino)ethylamino]-5,8-dihydroxyanthraquinone]	–	–	–	–	21.5 days	–	–	–	–	195%	20.0 days	20.5 days	24.0 days	26.5 days	182%	186%	218%	241%	9.0 days	82%	–
O=C1c2c(O)ccc(O)c2C(=O)c2c(NCCN3CC3)ccc(NCCN3CC3)c21 [1,4-Bis[2-(1-aziridino)ethylamino]-5,8-dihydroxyanthraquinone]	14.0 days	17.0 days	–	–	20.5 days	140%	170%	–	–	205%	18.5 days	20.0 days	21.5 days	28.5 days	185%	–	215%	285%	–	–	Median Survival Time [13]: 19.5 days; response vs control in vivo at 3.12 mg/kg [18]: 195%; response vs control in vivo at 25 mg/kg (Mus musculus, P388, ip; read-out: T/C × 100): 200%
O=C1c2c(O)ccc(O)c2C(=O)c2c(NCCN3CCOCC3)ccc(NCCN3CCOCC3)c21 [1,4-Bis(2-morpholinoethylamino)-5,8-dihydroxyanthraquinone]	–	–	–	–	–	–	–	–	–	–	–	–	–	12.0 days	–	–	–	126%	14.0 days	147%	–
Cl.Cl.O=C1c2c(O)ccc(O)c2C(=O)c2c(NCCN(CCO)CCO)ccc(NCCN(CCO)CCO)c21 [1,4-Bis[2-[di(β-hydroxyethyl)amino]ethylamino]-5,8-dihydroxyanthraquinone dihydrochloride]	14.5 days	16.0 days	19.0 days	18.5 days	18.5 days	161%	178%	211%	206%	206%	–	21.5 days	20.5 days	22.0 days	–	239%	228%	244%	> 30.0 days	> 333%	–
